From patent US4657865A, “Pullulanase-like enzyme, method for preparation thereof, and method for saccharification of starch therewith” (Agency of Industrial Science & Technology, priority 1985, dated 1987)

Legend:
[1] = tested on: pullulanase-like enzyme; test: Inhibition of the pullulanase activity by metal salts; type: biochemical, Bacillus subtilis; conditions: inhibitor concentration 1×10^-3 M
Protocol: (6) Inhibitor: This enzyme undergoes not less than 90% of inhibition by each of HgCl2 and AgNO3 used in a concentration of 1×10^-3 M and about 70% of inhibition by ZnSO4 used in the same concentration.
(10) Procedure for determination of activity: This enzyme is added in a suitable amount to 0.5 ml of a 1% pullulan solution (pH 7.0) obtained by dissolving pullulan in 0.1M phosphate buffer. The mixture is made up to a total volume of 1 ml with water and incubated at 40° C. The amount of this enzyme which is required in producing reducing power equivalent to 1μ mole of glucose after one minute standing under the aforementioned conditions is defined as one unit.

[2] = tested on: Bacillus subtilis (FERM BP-672) parent strain; test: Growth on culture medium containing Tunicamycin, parent strain; type: cell-based; conditions: culture medium containing Tunicamycin 25-100 μg/ml
Description: (§1) The aforementioned pullulanase-like enzyme is produced by a bacterium isolated from soil and identified to be Bacillus subtilis (FERM BP-672). […] It has been designated as Bacillus subtilis TU strain, deposited with Fermentation Research Institute, Agency of Industrial Science & Technology on Oct. 13, 1984 under FERM 7893, and also transferred to the International Deposition based on the Budapest Treaty on Dec. 20, 1984 and designated FERM BP-684.
(§2) A strain of Bacillus subtilis (FERM BP-672) was suspended in distilled water and irradiated with the ultraviolet light (15 W) from its source at a distance of about 30 cm for 5 minutes. Part of the irradiated suspension was placed in a culture medium containing 75 μg of Tunicamycin per ml (containing 1% of polypepton, 1% of soluble starch, 0.3% of K2 HPO4, and 0.1% of MgSO4.7H2 O) and aerobically cultured therein at 30° C. for three days. The grown microorganism was sprayed on a plate culture medium with the same culture medium containing agar and incubated at 30° C. The colonies which grew were preserved on a slant medium of the same composition. In the Tunicamycin-resistant mutants so produced, there was obtained in high frequency a strain of enhanced activity to produce the pullulanase-like enzyme. Bacillus subtilis TU strain (FERM BP-684) was thus obtained.

[3] = tested on: Bacillus subtilis TU strain; test: Growth on culture medium containing Tunicamycin, TU strain; type: cell-based; conditions: culture medium containing Tunicamycin 25-100 μg/ml
Description: as §1, §2

| Compound | inhibition [1] | growth of the parent strain [2] | growth of the TU strain [3] |
| --- | --- | --- | --- |
| O=[N+]([O-])[O-].[Ag+] [AgNO3] | not less than 90% |  |  |
| [Cl][Hg][Cl] [HgCl2] | not less than 90% |  |  |
| O=S(=O)([O-])[O-].[Zn+2] [ZnSO4] | about 70% |  |  |
| Tunicamycin |  | fails to show any growth | grows fairly well |
